# Data published in ChEMBL document CHEMBL5154884, “Discovery of a Novel Src Homology-2 Domain Containing Protein Tyrosine Phosphatase-2 (SHP2) and Cyclin-Dependent Kinase 4 (CDK4) Dual Inhibitor for the Treatment of Triple-Negative Breast Cancer” (J Med Chem, 2022).
# Active and inactive are the calls of the source. No cut-off for these calls is given here.
# Key:
# [1] = biological target: Cyclin-dependent kinase 7/ cyclin H (Homo sapiens, UniProt P50613); assay: Inhibition of CDK7/Cyclin H (unknown origin) incubated for 20 mins followed by [33P]gamma-ATP addition and measured after 2 hrs by radiometric HotSpot Kinase assay; type: protein-complex assay
# Sequence of Cyclin-dependent kinase 7/ cyclin H (P51946 whole entry): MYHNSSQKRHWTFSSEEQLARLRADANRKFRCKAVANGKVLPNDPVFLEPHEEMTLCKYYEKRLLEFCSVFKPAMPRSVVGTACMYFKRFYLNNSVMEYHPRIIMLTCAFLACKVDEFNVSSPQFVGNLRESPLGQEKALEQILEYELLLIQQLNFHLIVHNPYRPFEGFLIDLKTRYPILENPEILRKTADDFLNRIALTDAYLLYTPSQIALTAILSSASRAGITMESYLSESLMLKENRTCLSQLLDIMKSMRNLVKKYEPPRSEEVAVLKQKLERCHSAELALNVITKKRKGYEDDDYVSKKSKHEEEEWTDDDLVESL
# Sequence of Cyclin-dependent kinase 7/ cyclin H (P50613 whole entry): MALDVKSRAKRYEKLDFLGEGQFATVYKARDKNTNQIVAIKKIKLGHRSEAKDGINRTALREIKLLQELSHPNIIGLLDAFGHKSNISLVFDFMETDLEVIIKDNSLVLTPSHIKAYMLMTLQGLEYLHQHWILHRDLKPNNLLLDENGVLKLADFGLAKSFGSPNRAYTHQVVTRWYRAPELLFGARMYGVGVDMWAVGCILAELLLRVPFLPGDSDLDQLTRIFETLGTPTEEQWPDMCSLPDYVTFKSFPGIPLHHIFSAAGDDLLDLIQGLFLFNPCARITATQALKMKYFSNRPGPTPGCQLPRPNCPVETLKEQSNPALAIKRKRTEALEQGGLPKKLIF
# EMT6 [2] = assay: Antitumor activity against mouse EMT6 cells implanted in BALB/c mouse syngenic model assessed as downregulation of p-retinoblastoma level in tumor at 20 mg/kg, po bid measured after 18 days by immunohistochemical analysis; type: functional, organism-based; details: time 18.0 day
# [3] = Toxicity in BALB/c nude mouse implanted with mouse EMT6 cells assessed as mortality at 40 mg/kg, po qd and measured every 2 days for 18 days; type: organism-based; details: in vivo, 432 h, time 18 day
# CDK3/Cyclin E = CDK3/Cyclin E (Homo sapiens, UniProt Q00526); assay: Inhibition of recombinant N-terminal GST/His6-fusion tagged human CDK3/Cyclin E expressed in Sf9 insect cells incubated for 20 mins followed by [33P]gamma-ATP addition and measured after 2 hrs by radiometric HotSpot Kinase assay
# Sequence of CDK3/Cyclin E (P24864 whole entry, the tested form may be a part): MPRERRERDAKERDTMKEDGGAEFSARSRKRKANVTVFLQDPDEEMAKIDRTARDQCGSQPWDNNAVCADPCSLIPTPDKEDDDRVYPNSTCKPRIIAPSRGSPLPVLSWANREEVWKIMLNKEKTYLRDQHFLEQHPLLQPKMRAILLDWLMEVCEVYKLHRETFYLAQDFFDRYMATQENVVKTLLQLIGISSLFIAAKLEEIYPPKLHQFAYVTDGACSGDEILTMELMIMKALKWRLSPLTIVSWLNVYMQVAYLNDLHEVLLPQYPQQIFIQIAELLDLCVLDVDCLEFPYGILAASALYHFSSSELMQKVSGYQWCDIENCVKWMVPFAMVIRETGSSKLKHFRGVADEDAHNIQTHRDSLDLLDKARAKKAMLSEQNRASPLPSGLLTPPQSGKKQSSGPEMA
# Sequence of CDK3/Cyclin E (Q00526 whole entry, the tested form may be a part): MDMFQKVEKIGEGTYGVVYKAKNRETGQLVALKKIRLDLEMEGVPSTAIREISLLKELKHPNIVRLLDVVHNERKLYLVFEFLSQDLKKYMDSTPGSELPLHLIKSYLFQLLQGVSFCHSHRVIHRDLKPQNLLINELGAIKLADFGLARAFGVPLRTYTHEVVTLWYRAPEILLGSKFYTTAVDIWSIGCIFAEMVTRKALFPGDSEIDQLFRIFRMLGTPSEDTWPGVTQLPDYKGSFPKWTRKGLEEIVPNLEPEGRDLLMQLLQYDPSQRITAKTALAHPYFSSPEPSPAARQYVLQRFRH
# MDA-MB-231 [4] = assay: Induction of apoptosis in human MDA-MB-231 cells assessed as viable cells at 1 uM measured after 48 hrs by Annexin V-FITC/PI staining based flow cytometric analysis (reference value: 98.04%); type: functional; details: read-out: Activity
# [5] = biological target: Cyclin-dependent kinase 13/Cyclin-K (Homo sapiens, UniProt Q14004); assay: Inhibition of recombinant N-terminal GST/His6-fusion tagged human CDK13/Cyclin K expressed in Sf9 insect cells incubated for 20 mins followed by [33P]gamma-ATP addition and measured after 2 hrs by radiometric HotSpot Kinase assay
# Sequence of Cyclin-dependent kinase 13/Cyclin-K (Q14004 whole entry, the tested form may be a part): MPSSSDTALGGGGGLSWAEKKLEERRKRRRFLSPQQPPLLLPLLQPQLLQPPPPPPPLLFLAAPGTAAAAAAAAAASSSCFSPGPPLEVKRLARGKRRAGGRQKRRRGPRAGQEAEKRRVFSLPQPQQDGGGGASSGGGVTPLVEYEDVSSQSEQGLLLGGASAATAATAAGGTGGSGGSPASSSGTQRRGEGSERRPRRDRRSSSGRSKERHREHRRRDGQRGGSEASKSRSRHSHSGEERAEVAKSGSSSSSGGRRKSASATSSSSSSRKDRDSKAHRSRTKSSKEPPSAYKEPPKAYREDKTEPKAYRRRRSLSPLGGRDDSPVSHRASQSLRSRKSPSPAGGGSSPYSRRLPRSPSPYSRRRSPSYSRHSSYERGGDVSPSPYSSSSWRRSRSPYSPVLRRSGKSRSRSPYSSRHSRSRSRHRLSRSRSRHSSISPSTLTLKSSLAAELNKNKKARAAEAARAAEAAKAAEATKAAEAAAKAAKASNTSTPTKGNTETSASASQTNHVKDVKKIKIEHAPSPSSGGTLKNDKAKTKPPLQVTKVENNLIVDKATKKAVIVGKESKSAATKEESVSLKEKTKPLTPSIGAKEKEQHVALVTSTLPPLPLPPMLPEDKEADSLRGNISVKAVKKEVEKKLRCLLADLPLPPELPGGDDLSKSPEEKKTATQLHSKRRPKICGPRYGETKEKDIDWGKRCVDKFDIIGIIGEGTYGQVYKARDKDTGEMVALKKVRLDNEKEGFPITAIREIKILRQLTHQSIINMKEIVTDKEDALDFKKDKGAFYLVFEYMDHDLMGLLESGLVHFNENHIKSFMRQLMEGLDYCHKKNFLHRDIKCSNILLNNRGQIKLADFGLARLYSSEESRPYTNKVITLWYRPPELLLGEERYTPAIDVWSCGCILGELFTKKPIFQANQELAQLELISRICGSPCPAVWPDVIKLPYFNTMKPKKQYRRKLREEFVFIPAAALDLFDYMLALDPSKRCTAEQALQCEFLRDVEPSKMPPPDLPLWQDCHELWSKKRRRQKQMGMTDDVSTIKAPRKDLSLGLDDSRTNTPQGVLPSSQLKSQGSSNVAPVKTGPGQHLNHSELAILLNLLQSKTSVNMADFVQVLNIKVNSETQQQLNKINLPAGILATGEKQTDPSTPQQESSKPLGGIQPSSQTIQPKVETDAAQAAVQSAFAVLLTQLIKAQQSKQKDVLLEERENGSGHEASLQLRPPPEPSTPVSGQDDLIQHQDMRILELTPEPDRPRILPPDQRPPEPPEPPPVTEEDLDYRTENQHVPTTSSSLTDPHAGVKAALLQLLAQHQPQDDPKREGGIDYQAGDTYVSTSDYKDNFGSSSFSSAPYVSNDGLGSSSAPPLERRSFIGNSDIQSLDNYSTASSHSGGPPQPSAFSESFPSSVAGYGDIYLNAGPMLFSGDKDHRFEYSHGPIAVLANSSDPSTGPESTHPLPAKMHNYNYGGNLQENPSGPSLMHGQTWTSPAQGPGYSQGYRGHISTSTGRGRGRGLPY
# Sequence of Cyclin-dependent kinase 13/Cyclin-K (O75909 whole entry, further chain, the tested form may be a part): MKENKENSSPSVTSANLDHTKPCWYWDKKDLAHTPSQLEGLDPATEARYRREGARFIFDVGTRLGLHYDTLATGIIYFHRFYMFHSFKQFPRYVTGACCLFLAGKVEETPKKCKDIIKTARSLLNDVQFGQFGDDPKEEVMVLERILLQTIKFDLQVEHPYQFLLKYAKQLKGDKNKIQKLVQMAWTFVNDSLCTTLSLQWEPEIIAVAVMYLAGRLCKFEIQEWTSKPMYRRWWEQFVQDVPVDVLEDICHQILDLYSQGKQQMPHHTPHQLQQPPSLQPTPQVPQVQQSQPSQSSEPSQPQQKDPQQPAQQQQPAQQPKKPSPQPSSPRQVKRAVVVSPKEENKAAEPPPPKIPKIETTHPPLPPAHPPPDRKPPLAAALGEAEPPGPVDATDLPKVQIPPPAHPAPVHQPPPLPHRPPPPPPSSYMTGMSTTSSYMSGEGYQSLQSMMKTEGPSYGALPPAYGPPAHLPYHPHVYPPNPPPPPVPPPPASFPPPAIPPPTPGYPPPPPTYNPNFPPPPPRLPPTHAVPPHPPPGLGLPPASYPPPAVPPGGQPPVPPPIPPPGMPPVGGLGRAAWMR
# [6] = Volume of distribution in ICR mouse at 1 mg/kg, iv measured upto 24 hrs by LC-MS/MS analysis; type: ADME, organism-based; details: in vivo
# EMT6 [7] = assay: Antitumor activity against mouse EMT6 cells implanted in BALB/c mouse syngenic model assessed as tumor growth inhibition at 40 mg/kg, po qd and measured after 18 days relative to control; type: functional; details: EMT6, 432 h, time 18 day, read-out: TGI
# EMT6 [8] = assay: Antiproliferative activity against mouse EMT6 cells assessed as inhibition of cell growth incubated for 48 hrs by MTT assay; type: functional, cell-based; details: Mus musculus, EMT6, 48 h
# MDA-MB-468 = assay: Antiproliferative activity against human MDA-MB-468 cells assessed as inhibition of cell growth incubated for 48 hrs by MTT assay; type: functional, cell-based; details: Homo sapiens, MDA-MB-468, 48 h
# CDK4/Cyclin D3 [9] = biological target: T1, CDK4/Cyclin D3 (Homo sapiens, UniProt P11802); assay: Inhibition of recombinant N-terminal GST/His6-fusion tagged human CDK4/Cyclin D3 expressed in Sf9 insect cells incubated for 20 mins followed by [33P]gamma-ATP addition and measured after 2 hrs by radiometric HotSpot Kinase assay
# T1 sequence (P11802 whole entry, the tested form may be a part): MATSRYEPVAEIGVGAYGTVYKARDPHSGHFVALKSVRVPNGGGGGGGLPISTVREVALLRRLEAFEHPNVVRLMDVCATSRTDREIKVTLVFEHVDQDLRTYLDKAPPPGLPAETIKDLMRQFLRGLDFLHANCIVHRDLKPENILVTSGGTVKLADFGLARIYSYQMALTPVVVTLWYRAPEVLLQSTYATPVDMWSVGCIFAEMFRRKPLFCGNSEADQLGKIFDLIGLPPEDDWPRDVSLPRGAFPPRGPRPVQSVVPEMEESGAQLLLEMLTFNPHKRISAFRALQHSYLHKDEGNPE
# T1 sequence (P30281 whole entry, further chain, the tested form may be a part): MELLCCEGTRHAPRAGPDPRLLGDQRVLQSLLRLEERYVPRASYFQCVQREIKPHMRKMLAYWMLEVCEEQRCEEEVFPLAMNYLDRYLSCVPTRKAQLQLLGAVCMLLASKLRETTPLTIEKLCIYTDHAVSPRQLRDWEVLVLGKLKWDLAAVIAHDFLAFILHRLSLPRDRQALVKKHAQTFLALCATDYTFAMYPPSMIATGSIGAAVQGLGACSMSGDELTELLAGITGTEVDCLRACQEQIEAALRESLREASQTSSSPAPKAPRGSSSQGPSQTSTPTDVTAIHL
# EMT6 [10] = assay: Antitumor activity against mouse EMT6 cells implanted in BALB/c mouse syngenic model assessed as increase in infiltration of CD8 positive T cells into tumors at 20 mg/kg, po bid measured after 18 days by immunohistochemical analysis; type: functional, organism-based; details: time 18.0 day
# [11] = Toxicity in BALB/c nude mouse implanted with mouse EMT6 cells assessed as body weight loss at 40 mg/kg, po qd and measured every 2 days for 18 days; type: organism-based; details: in vivo, 432 h, time 18 day
# MDA-MB-231 [12] = assay: Induction of apoptosis in human MDA-MB-231 cells assessed as necrotic cells at 3 uM measured after 48 hrs by Annexin V-FITC/PI staining based flow cytometric analysis (reference value: 0.58%); type: functional
# [13] = biological target: Cyclin-dependent kinase 5/CDK5 activator 1 (Homo sapiens, UniProt Q00535); assay: Inhibition of recombinant full length N-terminal GST/His6-fusion tagged human CDK5/P25 expressed in Sf9 insect cells incubated for 20 mins followed by [33P]gamma-ATP addition and measured after 2 hrs by radiometric HotSpot Kinase assay
# Sequence of Cyclin-dependent kinase 5/CDK5 activator 1 (Q00535 whole entry, the tested form may be a part): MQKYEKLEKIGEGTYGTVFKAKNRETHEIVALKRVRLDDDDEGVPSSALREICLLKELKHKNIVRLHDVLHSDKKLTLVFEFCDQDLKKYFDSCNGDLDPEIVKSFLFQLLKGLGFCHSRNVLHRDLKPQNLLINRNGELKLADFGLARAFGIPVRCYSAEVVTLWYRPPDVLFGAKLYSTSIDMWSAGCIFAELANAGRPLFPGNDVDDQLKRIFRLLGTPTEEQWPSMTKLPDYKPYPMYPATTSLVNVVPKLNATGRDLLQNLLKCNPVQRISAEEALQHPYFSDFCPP
# Sequence of Cyclin-dependent kinase 5/CDK5 activator 1 (Q15078 whole entry, further chain, the tested form may be a part): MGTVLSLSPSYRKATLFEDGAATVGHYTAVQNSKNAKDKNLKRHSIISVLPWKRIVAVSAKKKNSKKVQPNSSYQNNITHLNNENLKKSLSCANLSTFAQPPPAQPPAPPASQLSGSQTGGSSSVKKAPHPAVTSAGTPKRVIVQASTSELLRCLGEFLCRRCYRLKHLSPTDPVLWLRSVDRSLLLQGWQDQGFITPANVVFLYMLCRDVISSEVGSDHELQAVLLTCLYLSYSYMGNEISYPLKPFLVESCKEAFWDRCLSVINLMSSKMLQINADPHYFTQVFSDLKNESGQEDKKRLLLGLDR
# [14] = AUC in ICR mouse at 10 mg/kg, po measured upto 24 hrs by LC-MS/MS analysis; type: ADME, organism-based; set-up: time < 24 hrs, dose 10 mg/kg, route po; details: in vivo
# CDK4/Cyclin D3 [15] = biological target: T1, CDK4/Cyclin D3; assay: Inhibition of recombinant N-terminal GST/His6-fusion tagged human CDK4/Cyclin D3 expressed in Sf9 insect cells using 5-FAM-IPTSPITTTYFFFKKK as substrate preincubated for 10 mins followed by substrate addition and incubated for 3 hrs in presence of ATP by caliper mobility shift analysis
# MDA-MB-231 [16] = assay: Upregulation of p-STAT3 protein expression in human MDA-MB-231 cells at 0.25 to 20 uM measured after 72 hrs by Western blot analysis; type: functional, cell-based; details: dose 0.25-20 µM
# MDA-MB-231 [17] = assay: Induction of cell cycle arrest in human MDA-MB-231 cells assessed as accumulation of cells in G2/M phase at 3 uM incubated for 48 hrs by RNase/propidium iodide staining based flow cytometry analysis (reference value: 2.7%); type: functional
# MDA-MB-231 [18] = assay: Induction of apoptosis in human MDA-MB-231 cells assessed as early apoptotic cells at 3 uM measured after 48 hrs by Annexin V-FITC/PI staining based flow cytometric analysis (reference value: 0.32%); type: functional
# MDA-MB-231 [19] = assay: Antiproliferative activity against human MDA-MB-231 cells assessed as inhibition of cell growth incubated for 48 hrs by MTT assay; type: functional, cell-based; details: Homo sapiens, MDA-MB-231, 48 h
# EMT6 [20] = assay: Antitumor activity against mouse EMT6 cells implanted in BALB/c mouse syngenic model assessed as increase in infiltration of CD8 positive T cells into tumors at 20 to 40 mg/kg, po qd measured after 18 days by immunohistochemical analysis; type: functional, organism-based; details: dose 20-40 mg/kg, time 18.0 day
# [21] = biological target: Cyclin-dependent kinase 4 (Homo sapiens) (UniProt P11802); assay: Inhibition of CDK4 downstream signalling in human MDA-MB-231 cells assessed as decrease in p-retinoblastoma protein level measured after 72 hrs by Western blot analysis; type: cell-based; details: dose 1.25-20 µM, DDE = dose-dependent effect
# Sequence of Cyclin-dependent kinase 4 (Homo sapiens) (P11802 whole entry): as the sequence (P11802 whole entry, the tested form may be a part) above
# [22] = Clearance in ICR mouse at 1 mg/kg, iv measured upto 24 hrs by LC-MS/MS analysis; type: ADME, organism-based; details: in vivo
# CDK2/Cyclin-E2 = CDK2/Cyclin-E2 (Homo sapiens, UniProt O96020+P24941); assay: Inhibition of recombinant N-terminal GST/His6-fusion tagged human CDK2/Cyclin E2 expressed in Sf9 insect cells incubated for 20 mins followed by [33P]gamma-ATP addition and measured after 2 hrs by radiometric HotSpot Kinase assay
# MDA-MB-231 [23] = assay: Induction of cell cycle arrest in human MDA-MB-231 cells assessed as accumulation of cells in G0/G1 phase at 3 uM incubated for 48 hrs by RNase/propidium iodide staining based flow cytometry analysis (reference value: 26.2%); type: functional
# MDA-MB-231 [24] = assay: Induction of cell cycle arrest in human MDA-MB-231 cells assessed as accumulation of cells in S phase at 3 uM incubated for 48 hrs by RNase/propidium iodide staining based flow cytometry analysis (reference value: […]); type: functional
# EMT6 [25] = assay: Antitumor activity against mouse EMT6 cells implanted in BALB/c mouse syngenic model assessed as downregulation of Ki67 level in tumor at 20 mg/kg, po bid measured after 18 days by immunohistochemical analysis; type: functional, organism-based; details: time 18.0 day
# CDK12/Cyclin K = CDK12/Cyclin K (Homo sapiens, UniProt Q9NYV4); assay: Inhibition of recombinant N-terminal GST/His6-fusion tagged human CDK12/Cyclin K expressed in Sf9 insect cells incubated for 20 mins followed by [33P]gamma-ATP addition and measured after 2 hrs by radiometric HotSpot Kinase assay
compound,measurement,setting,value
Cc1nc2c(F)cc(-c3nc(Nc4nccc(Sc5cnc(N6CCC7(CC6)CO[C@@H](C)[C@H]7N)cn5)c4Cl)ncc3F)cc2n1C(C)C,IC50,[1],968 nM
same,Activity,EMT6 [2],Active
same,Activity,[3],Non-Toxic
same,IC50,CDK3/Cyclin E,> 1000 nM
same,viability at 1 µM,MDA-MB-231 [4],86.3%
same,IC50,[5],> 1000 nM
same,Vd,[6],2.53 L/kg
same,inhibition in vivo at 40 mg/kg,EMT6 [7],80%
same,IC50,EMT6 [8],640 nM
same,IC50,MDA-MB-468,1760 nM
same,IC50,CDK4/Cyclin D3 [9],18.2 nM
same,Activity,EMT6 [10],Active
same,Activity,[11],Non-Toxic
same,Activity,MDA-MB-231 [12],1.25%
same,IC50,[13],540 nM
same,AUC at 24 h,[14],5510 ng·h/mL
same,IC50,CDK4/Cyclin D3 [15],18.2 nM
same,Activity,MDA-MB-231 [16],Active
same,Activity,MDA-MB-231 [17],1.5%
same,Activity,MDA-MB-231 [18],9.46%
same,IC50,MDA-MB-231 [19],5570 nM
same,Activity,EMT6 [20],Active
same,inhibition,[21],Dde
same,clearance,[22],13.9 mL/min/kg
same,IC50,CDK2/Cyclin-E2,464 nM
same,Activity,MDA-MB-231 [23],58.9%
same,Activity,MDA-MB-231 [24],39.6%
same,Activity,EMT6 [25],Active
same,IC50,CDK12/Cyclin K,697 nM
